Measured values from US20030229112A1, “Combination therapy for cancer” (priority 2000, published 2003).
Each block holds one compound with its values, some of them ahead of it.

Assays:
[1] = irinotecan, SN-38 and APC, following administration
NB-1771 tumors = experiment: Combination study against NB-1771 xenografts; format: in vivo, mice
Description: It has been have shown that the antitumor activity of camptothecins is highly schedule dependent. […] To determine whether there was similar schedule-dependency for temozolomide, the antitumor activity of this agent was examined when given daily for 5 days, 2×5 days per 21 day cycle or 3×5 days per 28 day cycle. See, as incorporated by reference, Houghton, P. J. et al., Clinical Cancer Res. Vol. 6, 4110-4118, October 2000. The total dose per cycle was constant. […] In this experiment mice received a cumulative dose of 210 mg/kg per cycle. Mice received 3 cycles of treatment (total cumulative dose was 630 mg/kg).

in vivo = settings: mouse
Rh18 rhabdomyosarcoma = experiment: Combination study against Rh18 rhabdomyosarcoma xenografts; format: in vivo, mice
[2] = same total dose given over 10 days versus over 5 days or as a single administration; cited from earlier work
[3] = test system: NB-SD neuroblastoma xenografts; experiment: Combination study against NB-SD neuroblastoma xenografts; format: in vivo, mice
[4] = test system: five other xenograft lines; experiment: Schedule dependence of temozolomide in five other xenograft lines; format: in vivo, mice
NB-1382 xenografts = experiment: Schedule dependence of temozolomide against NB-1382 xenografts; format: in vivo, mice
Protocol: It has been have shown that the antitumor activity of camptothecins is highly schedule dependent. […] The total dose per cycle was constant. […] In this experiment mice received a cumulative dose of 210 mg/kg per cycle.

[5] = test system: glioblastoma line, SJ-GBM2
advanced melanoma = settings: cited from earlier work

SMILES: CCc1c2c(nc3ccc(OC(=O)N4CCC(NCCCCC(=O)O)CC4)cc13)-c1cc3c(c(=O)n1C2)COC(=O)[C@]3(O)CC [APC]
apparent tmax [1]: 60 min

SMILES: CCc1c2c(nc3ccc(O)cc13)-c1cc3c(c(=O)n1C2)COC(=O)[C@]3(O)CC [SN-38]
apparent tmax [1]: 15 min

AUC(0-inf) (in vivo): 1820 ng·h/mL
Cmax (in vivo): 1240 ng/mL
Tmax (in vivo): 30 min
SMILES: CCc1c2c(nc3ccc(OC(=O)N4CCC(N5CCCCC5)CC4)cc13)-c1cc3c(c(=O)n1C2)COC(=O)[C@]3(O)CC [irinotecan, 7-ethyl-10-(4-[1-piperidino)-1-piperidino]-carbonyloxy-camptothecin]
tumor response (NB-1771 tumors; CPT-11 alone at 0.61 mg/kg): an occasional CR
tumor status at week 12 (NB-1771 tumors; CPT-11 alone at 1.25 or 0.61 mg/kg): all tumors had progressed
tumor response (Rh18 rhabdomyosarcoma; CPT-11 alone at the doses used in the combination): few CRs
antitumor activity by schedule [2]: significantly more active
tumor response ([3]; CPT-11 alone at 0.4 mg/kg): tumors progressed

SMILES: Cn1nnc2c(C(N)=O)ncn2c1=O [temozolomide, 3,4-dihydro-3-methyl-4-oxoimidazo-[5,1-d]1,2,3,4-tetrazin-8-carboximide]
sensitivity of tumors to single agent (NB-1771 tumors; temozolomide as a single agent): relatively sensitive
activity of most intensive schedule (daily for 5 consecutive days per cycle) compared to the other schedules ([4]; all experiments): either more active or equally active
schedule-dependent antitumor activity ([4]; five other xenograft lines (data not shown)): Far less schedule-dependent antitumor activity
AUC(0-inf) (in vivo): 47000 ng·h/mL
Cmax (in vivo): 36000 ng/mL
Tmax (in vivo): 30 min
sensitivity of xenograft to single agent (Rh18 rhabdomyosarcoma; temozolomide as a single agent): poorly sensitive
tumor response (NB-1382 xenografts; lower doses given over more protracted periods (2x5 days per 21 day cycle, 3x5 days per 28 day cycle), same total dose per cycle): progressively less effective
tumor response (NB-1382 xenografts; temozolomide given over 5 days, 42 mg/kg/dose, 210 mg/kg per cycle, 3 cycles): CRs were achieved in all mice, and were maintained at week 12
overall effect of treatment ([5]; temozolomide alone at 42 mg/kg, tumor volume at end of treatment similar to initiation): stasis
tumor response ([5]; temozolomide alone at 66 or 42 mg/kg, during the 8 weeks of treatment): some PRs, and an occasional CR
toxicity ([5]; temozolomide alone, higher dose level (66 mg/kg)): lethal during cycle 3 of treatment
clinical responses, % of patients (advanced melanoma; patients having advanced melanoma, Newlands et al., Br. J Cancer 1992): 17%
clinical response, % of patients (advanced melanoma; patients with advanced melanoma, Journal of Clinical Oncology 1995): 21%
tumor response ([3]; temozolomide alone at tolerated dose levels): little activity
